Test results from US12600720B2, “Modulators of the integrated stress response pathway” (Evotec International GmbH, priority 2020, dated 2026).

tested on: ATF4; experiment: HEK-ATF4 High Content Imaging assay (prevention of Tunicamycin induced ISR, ATF4 nucleus/cytoplasm signal ratio); format: cell-based; settings: Homo sapiens, wild-type HEK293 cells, 6 h incubation, ATF4 immunofluorescence
Procedure: HEK-ATF4 High Content Imaging assay
Example compounds were tested in the HEK-ATF4 High Content Imaging assay to assess their pharmacological potency to prevent Tunicamycin induced ISR. Wild-type HEK293 cells were plated in 384-well imaging assay plates at a density of 12,000 cells per well in growth medium (containing DMEM/F12, 10% FBS, 2 mM L-Glutamine, 100 U/mL Penicillin—100 μg/mL Streptomycin) and incubated at 37° C., 5% CO2. 24 h later, the medium was changed to 50 μL assay medium per well (DMEM/F12, 0.3% FBS, 2 mM L-Glutamine, 100 U/mL Penicillin—100 μg/mL Streptomycin). Example compounds were serially diluted in DMSO, spotted into intermediate plates and prediluted with assay medium containing 3.3 μM Tunicamycin to give an 11-fold excess of final assay concentration. In addition to the example compound testing area, the plates also contained multiples of control wells for assay normalization purposes, wells containing Tunicamycin but no example compounds (High control), as well as wells containing neither example compound nor Tunicamycin (Low control). The assay was started by transferring 5 μL from the intermediate plate into the assay plates, followed by incubation for 6 h at 37° C., 5% CO2. Subsequently, cells were fixed (4% PFA in PBS, 20 min at r.t.) and submitted to indirect ATF4 immunofluorescence staining (primary antibody rabbit anti ATF4, clone D4B8, Cell Signaling Technologies; secondary antibody Alexa Fluor 488 goat anti-rabbit IgG (H+L), Thermofisher Scientific). Nuclei were stained using Hoechst dye (Thermofisher Scientific), and plates were imaged on an Opera Phenix High Content imaging platform equipped with 405 nm and 488 nm excitation. Finally, images were analyzed using script based algorithms. The main readout HEK-ATF4 monitored the ATF4 signal ratio between nucleus and cytoplasm. Tunicamycin induced an increase in the overall ATF4 ratio signal, which was prevented by ISR modulating example compounds. In addition, HEK-CellCount readout was derived from counting the number of stained nuclei corresponding to healthy cells. This readout served as an internal toxicity control.

SMILES | IC50 [µM]
O=C(COc1ccc(Cl)c(F)c1)N[C@H]1CC[C@H](c2nc3ccc(Cl)cc3o2)NC1 [Example 2, N-[(3S,6R)-6-(6-chloro-1,3-benzoxazol-2-yl)piperidin-3-yl]-2-(4-chloro-3-fluorophenoxy)acetamide] | 0.5 to 2
O=C(COc1ccc(Cl)c(F)c1)N[C@H]1CC[C@H](c2nc3cc(Cl)ccc3o2)NC1 [Example 4, N-[(3S,6R)-6-(5-chloro-1,3-benzoxazol-2-yl)piperidin-3-yl]-2-(4-chloro-3-fluorophenoxy)acetamide] | 2 to 15
O=C(COc1ccc(Cl)c(F)c1)N[C@H]1CC[C@H](c2cn3cc(C(F)(F)F)ccc3n2)NC1 [Example 6, 2-(4-chloro-3-fluoro-phenoxy)-N-[(3S,6R)-6-[6-(trifluoromethyl)imidazo[1,2-a]pyridin-2-yl]-3-piperidyl]acetamide] | 2 to 15
O=C(COc1ccc(Cl)c(F)c1)N[C@H]1CC[C@H](c2cn3ccc(C(F)(F)F)cc3n2)NC1 [Example 8, 2-(4-chloro-3-fluoro-phenoxy)-N-[(3S,6R)-6-[7-(trifluoromethyl)imidazo[1,2-a]pyridin-2-yl]-3-piperidyl]acetamide] | 2 to 15
O=C(COc1ccc(Cl)c(F)c1)N[C@H]1CC[C@H](c2nc3cccc(Cl)c3o2)NC1 [Example 10, N-[(3S,6R)-6-(7-chloro-1,3-benzoxazol-2-yl)piperidin-3-yl]-2-(4-chloro-3-fluorophenoxy)acetamide] | 0.5 to 2
O=C(COc1ccc(Cl)c(F)c1)N[C@H]1CC[C@H](c2nc3ccc(OC(F)(F)F)cc3o2)NC1 [Example 12, 2-(4-chloro-3-fluorophenoxy)-N-[(3S,6R)-6-[6-(trifluoromethoxy)-1,3-benzoxazol-2-yl]piperidin-3-yl]acetamide] | 0.001 to 0.5

Next, values leading:

IC50 [µM] | SMILES
0.5 to 2 | O=C(COc1ccc(Cl)c(F)c1)N[C@H]1CC[C@H](c2nc3ccc(OC(F)F)cc3o2)NC1 [Example 14, 2-(4-chloro-3-fluorophenoxy)-N-[(3S,6R)-6-[6-(difluoromethoxy)-1,3-benzoxazol-2-yl]piperidin-3-yl]acetamide]
0.001 to 0.5 | O=C(COc1ccc(Cl)c(F)c1)N[C@H]1CC[C@H](c2nc3ccc(C(F)(F)F)cc3o2)NC1 [Example 16, 2-(4-chloro-3-fluorophenoxy)-N-[(3S,6R)-6-[6-(trifluoromethyl)-1,3-benzoxazol-2-yl]piperidin-3-yl]acetamide]
2 to 15 | O=C(COc1ccc(Cl)c(F)c1)N[C@H]1CC[C@H](c2nc3c(Cl)cccc3o2)NC1 [Example 18, N-[(3S,6R)-6-(4-chloro-1,3-benzoxazol-2-yl)piperidin-3-yl]-2-(4-chloro-3-fluorophenoxy)acetamide]
